# In US6528049B2, “Bisexual attractants, aggregants and arrestants for adults and larvae of codling moth and other species of lepidoptera” (Trece, Inc., priority 1999, dated 2003):
# What was measured:
# Assay type in all cases: in vivo, Cydia pomonella
# [1] = test system: codling moth; assay: Trap capture in a pheromone mating disruption treated walnut orchard; settings: 10 mg/lure, FIG. 6
# Protocol: FIG. 6 illustrates total capture of codling moth males and females, in a mating disruption treated orchard by using pheromone lures (-▴-) and by using lures containing ethyl (2E,4Z)-2,4-decadienoate (-♦-) (10 mg/lure)
# [2] = test system: codling moth; assay: Inherent attractancy field test of HPV blends in baited sticky traps in walnut orchard; settings: walnut orchard, blends 10 mg/white septa, ethyl (2E,4Z)-2,4-decadienoate 5 mg
# Protocol: The blends listed in Table 2 were then field tested in walnut orchards for their attractancy to male and female codling moths, and also for enhancement with synthetic codling moth pheromone and other additives identified above. Their total capture (both males and females), and their individual male and female capture were determined and results obtained, were compared to insect capture obtained with purified individual ester, compound #25 namely ethyl (2E,4Z)-2,4-decadienoate, and to the codling moth male sex pheromone compound #26 in Table 3.
# Individual blends containing representative aldehyde, alcohol, ester, monoterpene or sesquiterpene blends were provided in the traps in 10 mg/white septa.
# Individual host-plant volatile (HPV) blends identified by the #1-23 in Table 3 were tested for codling moth attractancy in a walnut orchard, and the results were compared to the isolated purified ethyl (2E,4Z)-2,4-decadienoate (#25), to pheromone (#26) and to solvent controls (#24).
# Twenty-five HPV blends and eight individual compounds were field tested. One synthetic blend, “ester blend #10,” elicited excellent codling moth attraction. In field tests, the other tested blends (see Table 3) and compounds captured no moths over a three month period, except for an “apple-skin surface extract” (Golden Delicious, ether solvent) (Σ=3 codling moth captured, 1♂: 2♀♀) and the individual compound, (E,E)-α-farnesene (Σ=1♂ codling moth captured). The field tests are presented in Table 3 and show attraction specificity for HPV ester blend #10.
# Sticky traps (ICP and IIB traps, Trécé, Inc. Salinas, Calif.) were baited with either extracts, blends of HPVs, or individual HPVs (>95% purity) that evaporated from impregnated rubber septa. HPV blends, or individual HPV compounds, were diluted in hexane and pipetted onto rubber septa at approximate doses of 10 mg/septum. A single treatment septum was placed in each sticky wing-trap, and hung approximately six meters high in the outer walnut canopy. Trap liners and treatment HPV septa were replaced every 10-14 days and pheromone septa every month and tests were conducted throughout two summers.
# A replicated series of different HPV treatment traps, control “blank” (unbaited) trap, and a commercial pheromone-baited trap (Trécé, Inc.) were distributed 5 trees apart throughout two distant Hartley walnut orchards and validated in 12 walnut orchards. The orchards were distinct, with one using three summer insecticide sprays and the other had no spraying. Thus, these test orchards had low vs. moderate relative populations of codling moths. Significant effects on the gender of codling moths captured were judged by paired tests, either T-test or a nonparametric test.
# [3] = test system: codling moths; assay: Effect of sample purity on trap capture
# Protocol: Additional purification procedures were conducted to show the differences and superiority of purified pear and apple volatiles over commercially available products. For that purpose, extracts were purified from commercially available compounds, typically available in only about 80-85% purity, to a purity between 90-100%, preferably over 98% purity. As the purity of the sample of ethyl (2E,4Z)-2,4-decadienoate increased so also did its attractancy to codling moths. For example, the mean captures (±SEM) were 4.5 (±2.0) for an 86% pure sample, 6.5 (±4.4) for a 93.6% pure sample and 9.3 (±3.2) for 98.8% pure sample.
# [4] = test system: first-instar or neonate larval worms of the codling moth; assay: Dual-choice larval orientation bioassay in petri dishes
# Protocol: Behavioral orientation responses in the laboratory of first-instar or neonate larval worms of the codling moth are seen in Table 16. Data shown in Table 16 represents means of to 50 bioassay replications using five neonates per experiment conducted in small areas (10 cm diameter petri dishes). Experiments were dual-choice tests, where the released neonate larvae crawled and made perceptual choices between two small (one cm diameter) filter paper discs, with one disk treated with 1 ug or 10 ug of ethyl (2E,4Z) decadienoate and the other disc treated with an equivalent volume of solvent (methylene chloride).
# [5] = test system: codling moth; assay: Field study of individual alcohols, aldehydes and esters; settings: individual compounds typically of purity 90-98%
# Description: Attractive activity of these compounds for male and female codling moth was compared to purified ethyl (2E,4Z)-2,4-decadienoate.
# When the cumulative evaluation of all studied compounds and/or blends containing aldehyde, alcohol, ester and terpene compounds was made, the following results clearly confirmed the findings seen in Table 3.
# [6] = test system: codling moth; assay: Sticky traps baited with the single compound or pheromone
# Description: FIG. 5 illustrates mean attraction of female and male codling moths to sticky traps baited with a single host plant volatile, ethyl (2E,4Z)-2,4-decadienoate. The attraction was followed over a two month period.
# [7] = test system: codling moth; assay: Trap capture with proportional mixes of ethyl 2,4-decadienoate isomers; settings: 1 mg dose/gray septum
# Protocol: Additionally, studies were performed to determine the attraction of codling moth to proportional mixes of (2E,4Z) and (2E,4E) isomers of ethyl 2,4-decadienoate and highly purified samples of each. Traps were baited with 1 mg dose/gray septum.
# [8] = test system: codling moth; assay: Low loading dose response trap study (FIG. 13); settings: loading doses 0.1 μg to 10 mg in grey septa
# Protocol: In this study, both males (-Δ-) and females (-□-) responded to a threshold dose of less than 10 μg of the ester attractant, while at progressively higher loading rates females were more responsive than males.
# [9] = five neonates per experiment, disc with 1 ug or 10 ug vs solvent disc
# [10] = Table 15, sticky trap, 3 traps, 43 trap checks (pheromone: 1 trap, 19 trap checks)
smiles,measurement,setting,value
"CCCCC/C=C\C=C\C(=O)OCC [Ethyl (2E,4Z)-2,4-Decadienoate, ethyl (2E,4Z)-2,4-decadienoate]",number of codling moths captured relative to lures with pheromone only,[1],more than double
same,FEMALE CM Captured with HPV; ♀♀/trap night ± SEM,[2],2.04 ± 0.85 ♀♀/trap night
same,MALE CM Captured with HPV; ♂♂/trap/night ± SEM,[2],1.42 ± 0.59 ♂♂/trap/night
same,Total CM Captured with HPV: (CM/trap/night ± SEM),[2],3.46 ± 1.44 CM/trap/night
same,Total CM Captured with HPV: (CM/trap/night ± SEM),[2]; listed as #25,3.46 CM/trap/night
same,mean captures (±SEM),[3]; 86% pure sample,4.5 (±2.0)
same,mean captures (±SEM),[3]; 93.6% pure sample,6.5 (±4.4)
same,mean captures (±SEM),[3]; 98.8% pure sample,9.3 (±3.2)
same,Arrestment; average time (sec) on or under disc:,[4]; 1 ug dose of attractant,19.7 ± 5.6 s
same,Arrestment; average time (sec) on or under disc:,[4]; 10 ug dose of attractant,33.0 ± 10.7 s
same,Attraction; average number of neonates contacting disc: x ± SEM,[4]; [9],4.5 ± 0.9
same,Latency: average time (sec) to first arrive at disc: x ± SEM,[4]; [9],74.5 ± 16.1 s
same,attractancy to male and female codling moth (in words),[5],most active
same,Female Capture: Sum:,"[6]; Table 15, sticky trap",76.4 Moths/Trap/Night
same,Male Capture: Sum:,"[6]; Table 15, sticky trap",24.9 Moths/Trap/Night
same,Female Capture: Mean ± SEM,[6]; [10],1.78 ± 0.45 Moths/Trap/Night
same,Male Capture: Mean ± SEM,[6]; [10],0.58 ± 0.12 Moths/Trap/Night
same,attractiveness relative to pheromone,"[6]; sticky traps, two month period",approximately 48%
same,Female CM Captured ♀♀/trap/night ± SEM,[7],0.76 ± 0.10 ♀♀/trap/night
same,MALE CM Captured: ♂♂/trap/night ± SEM,[7],0.62 ± 0.29 ♂♂/trap/night
same,Total CM Captured: CM/trap ± SEM,[7],1.38 ± 0.37 CM/trap
same,threshold dose to which males and females responded,[8],less than 10 μg
